Test system: MDA-MB-231/ATCC
Experiment: NCI SRB GI50 screen
Assay type: cell-based
Conditions: Homo sapiens, Breast, 48 hrs exposure, read-out: Growth Inhibition GI50 MDA-MB-231/ATCC
Experimental: (§1) 2-Anilino nicotinyl linked 2-amino benzothiazole conjugates of formula 9-12 were tested against fifty nine human cancer cell lines derived from nine cancer types (leukemia, non-small cell lung cancer, colon cancer, CNS cancer, melanoma, ovarian cancer, renal cancer, prostate cancer and breast cancer) as per NCI protocol. For each compound, dose response curves for individual cell lines were measured at a minimum of five concentrations at 10 fold dilutions. A protocol of 48 hrs continuous drug exposure was used, and a sulforhodamine B (SRB) protein assay was used to estimate cell viability or growth.

Compound	GI50
O=C(Nc1nc2ccc(F)cc2s1)c1cccnc1Nc1ccc(Cl)cc1Cl [Compound 10, N3-(6-fluoro-1,3-benzothiazol-2-yl)-2-(2,4-dichloroanilino)nicotinamide]	3410 nM

Test system: EKVX
Experiment: NCI SRB GI50 screen
Assay type: cell-based
Conditions: Homo sapiens, Non-small lung, 48 hrs exposure, read-out: Growth Inhibition GI50 EKVX
Experimental: as §1

Compound	GI50
O=C(Nc1nc2ccc(F)cc2s1)c1cccnc1Nc1ccc(Cl)cc1Cl [Compound 10, N3-(6-fluoro-1,3-benzothiazol-2-yl)-2-(2,4-dichloroanilino)nicotinamide]	2070 nM

Test system: K-562
Experiment: NCI SRB GI50 screen
Assay type: cell-based
Conditions: Homo sapiens, K562; Leukemia, 48 hrs exposure; read-out: Growth Inhibition GI50 K-562
Experimental: as §1

Compound	GI50
O=C(Nc1nc2ccc(F)cc2s1)c1cccnc1Nc1ccc(Cl)cc1Cl [Compound 10, N3-(6-fluoro-1,3-benzothiazol-2-yl)-2-(2,4-dichloroanilino)nicotinamide]	1780 nM

Test system: NCI-H226
Experiment: NCI SRB GI50 screen
Assay type: cell-based
Conditions: Homo sapiens, Non-small lung, 48 hrs exposure, read-out: Growth Inhibition GI50 NCI-H226
Experimental: as §1

Compound	GI50
O=C(Nc1nc2ccc(F)cc2s1)c1cccnc1Nc1ccc(Cl)cc1Cl [Compound 10, N3-(6-fluoro-1,3-benzothiazol-2-yl)-2-(2,4-dichloroanilino)nicotinamide]	2700 nM

Test system: MDA-MB-435
Experiment: NCI SRB GI50 screen
Assay type: cell-based
Conditions: Homo sapiens, Melanoma, 48 hrs exposure, read-out: Growth Inhibition GI50 MDA-MB-435
Experimental: as §1

Compound	GI50
O=C(Nc1nc2ccc(F)cc2s1)c1cccnc1Nc1ccc(Cl)cc1Cl [Compound 10, N3-(6-fluoro-1,3-benzothiazol-2-yl)-2-(2,4-dichloroanilino)nicotinamide]	3030 nM

Test system: A549/ATCC
Experiment: NCI SRB GI50 screen
Assay type: cell-based
Conditions: Homo sapiens, Non-small lung, 48 hrs exposure, read-out: Growth Inhibition GI50 A549/ATCC
Experimental: as §1

Compound	GI50
O=C(Nc1nc2ccc(F)cc2s1)c1cccnc1Nc1ccc(Cl)cc1Cl [Compound 10, N3-(6-fluoro-1,3-benzothiazol-2-yl)-2-(2,4-dichloroanilino)nicotinamide]	2960 nM

Test system: HCC-2998
Experiment: NCI SRB GI50 screen
Assay type: cell-based
Conditions: Homo sapiens, Colon, 48 hrs exposure, read-out: Growth Inhibition GI50 HCC-2998
Experimental: as §1

Compound	GI50
O=C(Nc1nc2ccc(F)cc2s1)c1cccnc1Nc1ccc(Cl)cc1Cl [Compound 10, N3-(6-fluoro-1,3-benzothiazol-2-yl)-2-(2,4-dichloroanilino)nicotinamide]	3540 nM

Test system: PC-3
Experiment: NCI SRB GI50 screen
Assay type: cell-based
Conditions: Homo sapiens, Prostate, 48 hrs exposure, read-out: Growth Inhibition GI50 PC-3
Experimental: as §1

Compound	GI50
O=C(Nc1nc2ccc(F)cc2s1)c1cccnc1Nc1ccc(Cl)cc1Cl [Compound 10, N3-(6-fluoro-1,3-benzothiazol-2-yl)-2-(2,4-dichloroanilino)nicotinamide]	2110 nM

Test system: UO-31
Experiment: NCI SRB GI50 screen
Assay type: cell-based
Conditions: Homo sapiens, Renal, 48 hrs exposure, read-out: Growth Inhibition GI50 UO-31
Experimental: as §1

Compound	GI50
O=C(Nc1nc2ccc(F)cc2s1)c1cccnc1Nc1ccc(Cl)cc1Cl [Compound 10, N3-(6-fluoro-1,3-benzothiazol-2-yl)-2-(2,4-dichloroanilino)nicotinamide]	1100 nM

Test system: SNB-75
Experiment: NCI SRB GI50 screen
Assay type: cell-based
Conditions: Homo sapiens, CNS, 48 hrs exposure, read-out: Growth Inhibition GI50 SNB-75
Experimental: as §1

Compound	GI50
O=C(Nc1nc2ccc(F)cc2s1)c1cccnc1Nc1ccc(Cl)cc1Cl [Compound 10, N3-(6-fluoro-1,3-benzothiazol-2-yl)-2-(2,4-dichloroanilino)nicotinamide]	2550 nM

Test system: OVCAR-8
Experiment: NCI SRB GI50 screen
Assay type: cell-based
Conditions: Homo sapiens, Ovarian, 48 hrs exposure, read-out: Growth Inhibition GI50 OVCAR-8
Experimental: as §1

Compound	GI50
O=C(Nc1nc2ccc(F)cc2s1)c1cccnc1Nc1ccc(Cl)cc1Cl [Compound 10, N3-(6-fluoro-1,3-benzothiazol-2-yl)-2-(2,4-dichloroanilino)nicotinamide]	2780 nM

Test system: TK-10
Experiment: NCI SRB GI50 screen
Assay type: cell-based
Conditions: Homo sapiens, Renal, 48 hrs exposure, read-out: Growth Inhibition GI50 TK-10
Experimental: as §1

Compound	GI50
O=C(Nc1nc2ccc(F)cc2s1)c1cccnc1Nc1ccc(Cl)cc1Cl [Compound 10, N3-(6-fluoro-1,3-benzothiazol-2-yl)-2-(2,4-dichloroanilino)nicotinamide]	3050 nM

Test system: SF-268
Experiment: NCI SRB GI50 screen
Assay type: cell-based
Conditions: Homo sapiens, CNS, 48 hrs exposure, read-out: Growth Inhibition GI50 SF-268
Experimental: as §1

Compound	GI50
O=C(Nc1nc2ccc(F)cc2s1)c1cccnc1Nc1ccc(Cl)cc1Cl [Compound 10, N3-(6-fluoro-1,3-benzothiazol-2-yl)-2-(2,4-dichloroanilino)nicotinamide]	3880 nM

Test system: OVCAR-4
Experiment: NCI SRB GI50 screen
Assay type: cell-based
Conditions: Homo sapiens, Ovarian, 48 hrs exposure, read-out: Growth Inhibition GI50 OVCAR-4
Experimental: as §1

Compound	GI50
O=C(Nc1nc2ccc(F)cc2s1)c1cccnc1Nc1ccc(Cl)cc1Cl [Compound 10, N3-(6-fluoro-1,3-benzothiazol-2-yl)-2-(2,4-dichloroanilino)nicotinamide]	2960 nM

Test system: NCI-H522
Experiment: NCI SRB GI50 screen
Assay type: cell-based
Conditions: Homo sapiens, Non-small lung, 48 hrs exposure, read-out: Growth Inhibition GI50 NCI-H522
Experimental: as §1

Compound	GI50
O=C(Nc1nc2ccc(F)cc2s1)c1cccnc1Nc1ccc(Cl)cc1Cl [Compound 10, N3-(6-fluoro-1,3-benzothiazol-2-yl)-2-(2,4-dichloroanilino)nicotinamide]	1480 nM

Test system: UACC-62
Experiment: NCI SRB GI50 screen
Assay type: cell-based
Conditions: Homo sapiens, Melanoma, 48 hrs exposure, read-out: Growth Inhibition GI50 UACC-62
Experimental: as §1

Compound	GI50
O=C(Nc1nc2ccc(F)cc2s1)c1cccnc1Nc1ccc(Cl)cc1Cl [Compound 10, N3-(6-fluoro-1,3-benzothiazol-2-yl)-2-(2,4-dichloroanilino)nicotinamide]	2120 nM

Test system: NCI-H460
Experiment: NCI SRB GI50 screen
Assay type: cell-based
Conditions: Homo sapiens, Non-small lung, 48 hrs exposure, read-out: Growth Inhibition GI50 NCI-H460
Experimental: as §1

Compound	GI50
O=C(Nc1nc2ccc(F)cc2s1)c1cccnc1Nc1ccc(Cl)cc1Cl [Compound 10, N3-(6-fluoro-1,3-benzothiazol-2-yl)-2-(2,4-dichloroanilino)nicotinamide]	2560 nM

Test system: COLO 205
Experiment: NCI SRB GI50 screen
Assay type: cell-based
Conditions: Homo sapiens, Colon, 48 hrs exposure, read-out: Growth Inhibition GI50 COLO 205
Experimental: as §1

Compound	GI50
O=C(Nc1nc2ccc(F)cc2s1)c1cccnc1Nc1ccc(Cl)cc1Cl [Compound 10, N3-(6-fluoro-1,3-benzothiazol-2-yl)-2-(2,4-dichloroanilino)nicotinamide]	1900 nM

Test system: SF-295
Experiment: NCI SRB GI50 screen
Assay type: cell-based
Conditions: Homo sapiens, CNS, 48 hrs exposure, read-out: Growth Inhibition GI50 SF-295
Experimental: as §1

Compound	GI50
O=C(Nc1nc2ccc(F)cc2s1)c1cccnc1Nc1ccc(Cl)cc1Cl [Compound 10, N3-(6-fluoro-1,3-benzothiazol-2-yl)-2-(2,4-dichloroanilino)nicotinamide]	1830 nM

Test system: SK-OV-3
Experiment: NCI SRB GI50 screen
Assay type: cell-based
Conditions: Homo sapiens, Ovarian, 48 hrs exposure, read-out: Growth Inhibition GI50 SK-OV-3
Experimental: as §1

Compound	GI50
O=C(Nc1nc2ccc(F)cc2s1)c1cccnc1Nc1ccc(Cl)cc1Cl [Compound 10, N3-(6-fluoro-1,3-benzothiazol-2-yl)-2-(2,4-dichloroanilino)nicotinamide]	2500 nM

Test system: M14
Experiment: NCI SRB GI50 screen
Assay type: cell-based
Conditions: Homo sapiens, Melanoma, 48 hrs exposure, read-out: Growth Inhibition GI50 M14
Experimental: as §1

Compound	GI50
O=C(Nc1nc2ccc(F)cc2s1)c1cccnc1Nc1ccc(Cl)cc1Cl [Compound 10, N3-(6-fluoro-1,3-benzothiazol-2-yl)-2-(2,4-dichloroanilino)nicotinamide]	3370 nM

Test system: MDA-MB-468
Experiment: NCI SRB GI50 screen
Assay type: cell-based
Conditions: Homo sapiens, Breast, 48 hrs exposure, read-out: Growth Inhibition GI50 MDA-MB-468
Experimental: as §1

Compound	GI50
O=C(Nc1nc2ccc(F)cc2s1)c1cccnc1Nc1ccc(Cl)cc1Cl [Compound 10, N3-(6-fluoro-1,3-benzothiazol-2-yl)-2-(2,4-dichloroanilino)nicotinamide]	1880 nM

Test system: HOP-62
Experiment: NCI SRB GI50 screen
Assay type: cell-based
Conditions: Homo sapiens, Non-small lung, 48 hrs exposure, read-out: Growth Inhibition GI50 HOP-62
Experimental: as §1

Compound	GI50
O=C(Nc1nc2ccc(F)cc2s1)c1cccnc1Nc1ccc(Cl)cc1Cl [Compound 10, N3-(6-fluoro-1,3-benzothiazol-2-yl)-2-(2,4-dichloroanilino)nicotinamide]	3940 nM

Test system: MOLT-4
Experiment: NCI SRB GI50 screen
Assay type: cell-based
Conditions: Homo sapiens, Leukemia, 48 hrs exposure, read-out: Growth Inhibition GI50 MOLT-4
Experimental: as §1

Compound	GI50
O=C(Nc1nc2ccc(F)cc2s1)c1cccnc1Nc1ccc(Cl)cc1Cl [Compound 10, N3-(6-fluoro-1,3-benzothiazol-2-yl)-2-(2,4-dichloroanilino)nicotinamide]	2270 nM

Test system: HOP-92
Experiment: NCI SRB GI50 screen
Assay type: cell-based
Conditions: Homo sapiens, Non-small lung, 48 hrs exposure, read-out: Growth Inhibition GI50 HOP-92
Experimental: as §1

Compound	GI50
O=C(Nc1nc2ccc(F)cc2s1)c1cccnc1Nc1ccc(Cl)cc1Cl [Compound 10, N3-(6-fluoro-1,3-benzothiazol-2-yl)-2-(2,4-dichloroanilino)nicotinamide]	1480 nM

Test system: MALME-3M
Experiment: NCI SRB GI50 screen
Assay type: cell-based
Conditions: Homo sapiens, read-out: Growth Inhibition GI50 MALME-3M, Melanoma, 48 hrs exposure
Experimental: as §1

Compound	GI50
O=C(Nc1nc2ccc(F)cc2s1)c1cccnc1Nc1ccc(Cl)cc1Cl [Compound 10, N3-(6-fluoro-1,3-benzothiazol-2-yl)-2-(2,4-dichloroanilino)nicotinamide]	2380 nM

Test system: UACC-257
Experiment: NCI SRB GI50 screen
Assay type: cell-based
Conditions: Homo sapiens, Melanoma, 48 hrs exposure, read-out: Growth Inhibition GI50 UACC-257
Experimental: as §1

Compound	GI50
O=C(Nc1nc2ccc(F)cc2s1)c1cccnc1Nc1ccc(Cl)cc1Cl [Compound 10, N3-(6-fluoro-1,3-benzothiazol-2-yl)-2-(2,4-dichloroanilino)nicotinamide]	170 nM

Test system: T-47D
Experiment: NCI SRB GI50 screen
Assay type: cell-based
Conditions: Homo sapiens, T47D; Breast, 48 hrs exposure; read-out: Growth Inhibition GI50 T-47D
Experimental: as §1

Compound	GI50
O=C(Nc1nc2ccc(F)cc2s1)c1cccnc1Nc1ccc(Cl)cc1Cl [Compound 10, N3-(6-fluoro-1,3-benzothiazol-2-yl)-2-(2,4-dichloroanilino)nicotinamide]	1930 nM

Test system: U251
Experiment: NCI SRB GI50 screen
Assay type: cell-based
Conditions: Homo sapiens, U-251; CNS, 48 hrs exposure; read-out: Growth Inhibition GI50 U251
Experimental: as §1

Compound	GI50
O=C(Nc1nc2ccc(F)cc2s1)c1cccnc1Nc1ccc(Cl)cc1Cl [Compound 10, N3-(6-fluoro-1,3-benzothiazol-2-yl)-2-(2,4-dichloroanilino)nicotinamide]	2900 nM

Test system: NCI/ADR-RES
Experiment: NCI SRB GI50 screen
Assay type: cell-based
Conditions: Homo sapiens, Ovarian, 48 hrs exposure, read-out: Growth Inhibition GI50 NCI/ADR-RES
Experimental: as §1

Compound	GI50
O=C(Nc1nc2ccc(F)cc2s1)c1cccnc1Nc1ccc(Cl)cc1Cl [Compound 10, N3-(6-fluoro-1,3-benzothiazol-2-yl)-2-(2,4-dichloroanilino)nicotinamide]	2510 nM

Test system: MCF7
Experiment: NCI SRB GI50 screen
Assay type: cell-based
Conditions: Homo sapiens, Breast, 48 hrs exposure, read-out: Growth Inhibition GI50 MCF7
Experimental: as §1

Compound	GI50
O=C(Nc1nc2ccc(F)cc2s1)c1cccnc1Nc1ccc(Cl)cc1Cl [Compound 10, N3-(6-fluoro-1,3-benzothiazol-2-yl)-2-(2,4-dichloroanilino)nicotinamide]	3070 nM

Reference: patent publication US9029553B2, “2-anilino nicotinyl linked 2-amino benzothiazole conjugates and process for the preparation thereof” (Council of Scientific & Industrial Research, priority 2011, dated 2015)
